# Values of other authors as cited in patent publication US12557816B2, “Compositions for controlling a plant disease” (NutriAg Ltd., priority 2017, dated 2026).
# Conditions: phosphorous acid: second dissociation; hydrogen phosphite ion: conjugate base
row,Compound,pKa
1,"OP(O)O [Phosphorous acid, phosphorous acid]",about 1.3
2,hydrogen phosphite [hydrogen phosphite (or phosphonate) ion],about 6.7
